Results on 16 compounds are retold here after patent US20180099931A1 (AbbVie S.à.r.l., priority 2016, published 2018).

Where two headings read alike, the source gives them in different places.

This assay addresses T1, F508delCFTR (Homo sapiens, UniProt P13569, DEL508-508).
T1 construct: expressed in transfected cells; host or cells: CFBE41o- human lung-derived epithelial cells (CFBE4lo-F508delCFTR-HRP), doxycycline-inducible
The assay is described as follows: Cell Surface Expression-Horse Radish Peroxidase (CSE-HRP) Assay.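 As to Maximum % activity (with co-corrector): co-corrector and positive control are both the same reference corrector at 2 µM.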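 As to Maximum % activity (without co-corrector): percent of the 2 µM on-plate positive control corrector response above DMSO.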 It counts as cell-based. As to conditions: for Maximum % activity (with co-corrector): with co-corrector (2 μM); for Maximum % activity (with co-corrector) / Emax: maximum at any tested concentration, normalized to on-plate positive control; for Emax: without co-corrector, read-out: Maximum % activity (without co-corrector).

Setting [1] is: test compound without co-corrector, read-out: EC50 (without co-corrector).
The mark [2] stands for this setting: with co-corrector (2 μM of 3-[(2R,4R)-4-({[1-(2,2-difluoro-1,3-benzodioxol-5-yl)cyclopropyl]carbonyl}amino)-7-methoxy-3,4-dihydro-2H-chromen-2-yl]benzoic acid), read-out: EC50 (with co-corrector).

T1 sequence (P13569 with tags, fused parts or gaps DEL508-508): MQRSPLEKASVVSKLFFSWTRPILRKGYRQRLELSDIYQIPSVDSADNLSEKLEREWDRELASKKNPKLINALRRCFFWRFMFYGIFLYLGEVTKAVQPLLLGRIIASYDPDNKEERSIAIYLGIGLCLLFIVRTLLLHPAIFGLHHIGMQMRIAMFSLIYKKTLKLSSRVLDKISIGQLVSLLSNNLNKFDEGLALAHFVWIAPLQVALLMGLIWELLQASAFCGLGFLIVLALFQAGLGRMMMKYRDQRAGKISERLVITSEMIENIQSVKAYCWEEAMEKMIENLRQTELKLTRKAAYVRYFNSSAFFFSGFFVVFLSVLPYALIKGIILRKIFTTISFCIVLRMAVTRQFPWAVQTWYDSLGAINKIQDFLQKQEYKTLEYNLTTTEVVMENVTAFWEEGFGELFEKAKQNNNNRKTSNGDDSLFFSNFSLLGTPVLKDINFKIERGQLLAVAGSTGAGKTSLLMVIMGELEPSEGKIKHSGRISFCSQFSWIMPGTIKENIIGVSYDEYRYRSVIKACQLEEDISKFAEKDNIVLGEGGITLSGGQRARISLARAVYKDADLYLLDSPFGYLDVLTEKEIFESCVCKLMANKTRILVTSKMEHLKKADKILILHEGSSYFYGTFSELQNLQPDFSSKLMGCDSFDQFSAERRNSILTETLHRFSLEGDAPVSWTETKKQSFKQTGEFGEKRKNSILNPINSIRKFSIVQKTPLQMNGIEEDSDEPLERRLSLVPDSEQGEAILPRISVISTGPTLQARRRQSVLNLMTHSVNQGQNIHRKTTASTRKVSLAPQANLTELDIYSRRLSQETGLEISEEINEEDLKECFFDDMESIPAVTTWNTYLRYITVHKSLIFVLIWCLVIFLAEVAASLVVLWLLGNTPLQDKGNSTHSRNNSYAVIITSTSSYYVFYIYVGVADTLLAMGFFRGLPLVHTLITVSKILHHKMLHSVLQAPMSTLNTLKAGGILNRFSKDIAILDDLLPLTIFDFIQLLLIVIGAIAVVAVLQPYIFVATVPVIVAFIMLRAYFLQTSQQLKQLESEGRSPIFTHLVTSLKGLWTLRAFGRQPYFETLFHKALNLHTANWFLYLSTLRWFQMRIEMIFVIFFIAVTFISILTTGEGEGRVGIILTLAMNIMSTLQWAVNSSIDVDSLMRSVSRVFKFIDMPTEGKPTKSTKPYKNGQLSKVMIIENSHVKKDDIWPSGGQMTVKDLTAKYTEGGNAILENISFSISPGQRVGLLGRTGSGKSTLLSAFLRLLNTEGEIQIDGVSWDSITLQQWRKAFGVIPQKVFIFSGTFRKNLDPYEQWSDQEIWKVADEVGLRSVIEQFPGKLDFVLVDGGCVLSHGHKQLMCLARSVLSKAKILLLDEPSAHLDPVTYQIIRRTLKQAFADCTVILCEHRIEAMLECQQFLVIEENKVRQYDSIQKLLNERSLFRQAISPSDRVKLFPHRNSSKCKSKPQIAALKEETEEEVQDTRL

On to `COc1ccc(C23CC(C2)C3)cc1CN[C@H]1[C@H](C(C)(C)C)[C@@H](C(=O)O)N(C(=O)[C@@H]2CCCC(F)(F)C2)[C@H]1c1ccccc1` [Example 67, (2S,3S,4S,5S)-4-({[5-(bicyclo[1.1.1]pentan-1-yl)-2-methoxyphenyl]methyl}amino)-3-tert-butyl-1-[(1R)-3,3-difluorocyclohexane-1-carbonyl]-5-phenylpyrrolidine-2-carboxylic acid], for which the “Maximum % activity (with co-corrector)” value is listed as “+++ (≥350)” and the Emax was greater than 200%. Further, the EC50 (in general, the concentration at which the effect is half-maximal) under setting [1] was less than 1000 nM. Also, the half-maximal effective concentration (EC50) under setting [2] is less than 1000 nM.
As for `COc1ncc(C2CCC2)cc1CN[C@H]1[C@H](C(C)(C)C)[C@@H](C(=O)O)N(C(=O)OC(C)C)[C@H]1c1ccccc1C(C)C` [Example 68, (2S,3S,4S,5S)-3-tert-butyl-4-{[(5-cyclobutyl-2-methoxypyridin-3-yl)methyl]amino}-1-{[(propan-2-yl)oxy]carbonyl}-5-[2-(propan-2-yl)phenyl]pyrrolidine-2-carboxylic acid], the “Maximum % activity (with co-corrector)” value is on record as “+++ (≥350)” and the Emax is greater than 200%. The EC50 under setting [1] lay within 1000 to 10000 nM. Moreover, under setting [2], the EC50 is less than 1000 nM.
Consider `COc1ncc(C2CCC2)cc1CN[C@H]1[C@H](C(C)(C)C)[C@@H](C(=O)O)N(C(=O)[C@@H]2CCCC(F)(F)C2)[C@H]1c1ccccc1` [Example 69, (2S,3S,4S,5S)-3-tert-butyl-4-{[(5-cyclobutyl-2-methoxypyridin-3-yl)methyl]amino}-1-[(1R)-3,3-difluorocyclohexane-1-carbonyl]-5-phenylpyrrolidine-2-carboxylic acid], for which the “Maximum % activity (with co-corrector)” value is listed as “+++ (≥350)” and the Emax was greater than 200%. Further, under setting [1], the EC50 was less than 1000 nM. Further, the EC50 under setting [2] was less than 1000 nM.
As to `COc1nc(C(C)(C)C)ccc1CN[C@H]1[C@H](C23CC(C2)C3)[C@@H](C(=O)O)N(C(=O)OC(C)C)[C@H]1c1ccccc1` [Example 70, (2S,3S,4S,5S)-3-(bicyclo[1.1.1]pentan-1-yl)-4-{[(6-tert-butyl-2-methoxypyridin-3-yl)methyl]amino}-5-phenyl-1-{[(propan-2-yl)oxy]carbonyl}pyrrolidine-2-carboxylic acid], the “Maximum % activity (with co-corrector)” value is reported as “+++ (≥350)” and the Emax was 100 to 200%. In addition, the EC50 under setting [1] was 1000 to 10000 nM. Under setting [2], the EC50 fell in the range of 1000 to 10000 nM.
Consider `COc1ccc(C(C)(C)C)cc1CN[C@H]1[C@H](C23CC(C2)C3)[C@@H](C(=O)O)N(C(=O)OC(C)C)[C@H]1c1cccnc1N(C)C` [Example 71, (2S,3S,4S,5S)-3-(bicyclo[1.1.1]pentan-1-yl)-4-{[(5-tert-butyl-2-methoxyphenyl)methyl]amino}-5-[2-(dimethylamino)pyridin-3-yl]-1-{[(propan-2-yl)oxy]carbonyl}pyrrolidine-2-carboxylic acid], for which the “Maximum % activity (with co-corrector)” value is “+++ (≥350)” and the Emax is greater than 200%. The EC50 under setting [1] fell in the range of 1000 to 10000 nM. Also, under setting [2], the EC50 is 1000 to 10000 nM.
For `COc1ncc(C2CCC2)cc1CN[C@H]1[C@H](C(C)(C)C)[C@@H](C(=O)O)N(C(=O)[C@H]2CCCCO2)[C@H]1c1ccccc1C(C)C` [Example 72, (2S,3S,4S,5S)-3-tert-butyl-4-{[(5-cyclobutyl-2-methoxypyridin-3-yl)methyl]amino}-1-[(2R)-oxane-2-carbonyl]-5-[2-(propan-2-yl)phenyl]pyrrolidine-2-carboxylic acid], the “Maximum % activity (with co-corrector)” value is “+++ (≥350)” and the Emax is greater than 200%. Also, the EC50 under setting [1] fell in the range of 1000 to 10000 nM. Further, the EC50 under setting [2] was less than 1000 nM.
The matching figures for `COc1ncc(C2CCC2)cc1CN[C@H]1[C@H](C(C)(C)C)[C@@H](C(=O)O)N(C(=O)[C@@H]2CCCCO2)[C@H]1c1ccccc1C(C)C` [Example 73, (2S,3S,4S,5S)-3-tert-butyl-4-{[(5-cyclobutyl-2-methoxypyridin-3-yl)methyl]amino}-1-[(2S)-oxane-2-carbonyl]-5-[2-(propan-2-yl)phenyl]pyrrolidine-2-carboxylic acid]: “+++ (≥350)”, greater than 200%, less than 1000 nM and less than 1000 nM.
The like results for `COc1cc(C(F)(F)F)ccc1CN[C@H]1[C@H](C(C)(C)C)[C@@H](C(=O)O)N(C(=O)[C@@H]2CCCC(F)(F)C2)[C@H]1c1ccccc1` [Example 75, (2S,3S,4S,5S)-3-tert-butyl-1-[(1R)-3,3-difluorocyclohexane-1-carbonyl]-4-({[2-methoxy-4-(trifluoromethyl)phenyl]methyl}amino)-5-phenylpyrrolidine-2-carboxylic acid] were, in that order, “+++ (≥350)”, greater than 200%, 1000 to 10000 nM and less than 1000 nM.
On to `COc1ccc(C(C)(C)C)cc1CN[C@H]1[C@H](C23CC(C2)C3)[C@@H](C(=O)O)N(C(=O)OC(C)C)[C@H]1c1cccnc1OC` [Example 76, (2S,3S,4S,5S)-3-(bicyclo[1.1.1]pentan-1-yl)-4-{[(5-tert-butyl-2-methoxyphenyl)methyl]amino}-5-(2-methoxypyridin-3-yl)-1-{[(propan-2-yl)oxy]carbonyl}pyrrolidine-2-carboxylic acid], for which the “Maximum % activity (with co-corrector)” value is “+++ (≥350)” and the Emax was 100 to 200%. Also, the EC50 under setting [1] lay in the range of 1000 to 10000 nM. Under setting [2], the EC50 is 1000 to 10000 nM.
For the compound `COc1ncc(C(F)(F)F)cc1CN[C@H]1[C@H](C(C)(C)C)[C@@H](C(=O)O)N(C(=O)OC(C)C)[C@H]1c1ccccc1C(C)C` [Example 77, (2S,3S,4S,5S)-3-tert-butyl-4-({[2-methoxy-5-(trifluoromethyl)pyridin-3-yl]methyl}amino)-1-{[(propan-2-yl)oxy]carbonyl}-5-[2-(propan-2-yl)phenyl]pyrrolidine-2-carboxylic acid], the “Maximum % activity (with co-corrector)” value was “+++ (≥350)” and the Emax is greater than 200%. The EC50 under setting [1] was 1000 to 10000 nM. Moreover, the EC50 under setting [2] lay within 1000 to 10000 nM.
`COc1ccc(C(F)(F)F)cc1CN[C@H]1[C@H](C(C)(C)C)[C@@H](C(=O)O)N(C(=O)OC(C)C)[C@H]1c1cccnc1OC(C)C` [Example 78, (2S,3S,4S,5S)-3-tert-butyl-4-({[2-methoxy-5-(trifluoromethyl)phenyl]methyl}amino)-1-{[(propan-2-yl)oxy]carbonyl}-5-{2-[(propan-2-yl)oxy]pyridin-3-yl}pyrrolidine-2-carboxylic acid]: the “Maximum % activity (with co-corrector)” value is “+++ (≥350)” and the Emax is greater than 200%. Further, under setting [1], the 50% effective concentration (EC50) was in the range of 1000 to 10000 nM. For the same compound, under setting [2], the EC50 was 1000 to 10000 nM.
For `COc1ncc(C(F)(F)F)cc1CN[C@H]1[C@H](C(C)(C)C)[C@@H](C(=O)O)N(C(=O)OC(C)C)[C@H]1c1cccnc1OC(C)C` [Example 79, (2S,3S,4S,5S)-3-tert-butyl-4-({[2-methoxy-5-(trifluoromethyl)pyridin-3-yl]methyl}amino)-1-{[(propan-2-yl)oxy]carbonyl}-5-{2-[(propan-2-yl)oxy]pyridin-3-yl}pyrrolidine-2-carboxylic acid], the “Maximum % activity (with co-corrector)” value is recorded as “+++ (≥350)” and the Emax was greater than 200%. The 50% effective concentration (EC50) under setting [1] was in the range of 1000 to 10000 nM. Besides, under setting [2], the EC50 lay in the range of 1000 to 10000 nM.
Regarding `COc1ccc(C2(C)CCC2)cc1CN[C@H]1[C@H](C(C)(C)C)[C@@H](C(=O)O)N(C(=O)OC(C)C)[C@H]1c1cccnc1N(C)C` [Example 80, (2S,3S,4S,5S)-3-tert-butyl-5-[2-(dimethylamino)pyridin-3-yl]-4-({[2-methoxy-5-(1-methylcyclobutyl)phenyl]methyl}amino)-1-{[(propan-2-yl)oxy]carbonyl}pyrrolidine-2-carboxylic acid], the “Maximum % activity (with co-corrector)” value is reported as “+++ (≥350)” and the Emax is greater than 200%. Further, the concentration giving a half-maximal response (EC50) under setting [1] lay within 1000 to 10000 nM. In addition, the EC50 under setting [2] was in the range of 1000 to 10000 nM.
As for `COc1cc(C(F)(F)F)ccc1CN[C@H]1[C@H](C(C)(C)C)[C@@H](C(=O)O)N(C(=O)OC(C)C)[C@H]1c1cccnc1OC(C)C` [Example 81, (2S,3S,4S,5S)-3-tert-butyl-4-({[2-methoxy-4-(trifluoromethyl)phenyl]methyl}amino)-1-{[(propan-2-yl)oxy]carbonyl}-5-{2-[(propan-2-yl)oxy]pyridin-3-yl}pyrrolidine-2-carboxylic acid], the “Maximum % activity (with co-corrector)” value is reported as “+++ (≥350)” and the Emax lay in the range of 100 to 200%. Besides, under setting [1], the EC50 fell in the range of 1000 to 10000 nM. Further, the EC50 under setting [2] lay within 1000 to 10000 nM.
On to `Cc1cc(C(F)(F)F)cc(N[C@H]2[C@H](C(C)(C)C)[C@@H](C(=O)O)N(C(=O)OC(C)C)[C@H]2c2ccccc2C(C)C)n1` [Example 82, (2S,3S,4S,5S)-3-tert-butyl-4-{[6-methyl-4-(trifluoromethyl)pyridin-2-yl]amino}-1-{[(propan-2-yl)oxy]carbonyl}-5-[2-(propan-2-yl)phenyl]pyrrolidine-2-carboxylic acid], for which the “Maximum % activity (with co-corrector)” value is “++ (≥150 and <350)”; the Emax is less than 100%. Under setting [1], the EC50 lay in the range of 1000 to 10000 nM. Besides, under setting [2], the concentration for a half-maximal effect (EC50) was 1000 to 10000 nM.
On to `COc1ccc(C(F)(F)F)cc1CN[C@H]1[C@H](C(C)(C)C)[C@@H](C(=O)O)N(C(=O)OC(C)C)[C@H]1c1ccccc1C(C)C` [Example 83, (2S,3S,4S,5S)-3-tert-butyl-4-({[2-methoxy-5-(trifluoromethyl)phenyl]methyl}amino)-1-{[(propan-2-yl)oxy]carbonyl}-5-[2-(propan-2-yl)phenyl]pyrrolidine-2-carboxylic acid], for which the “Maximum % activity (with co-corrector)” value was “+++ (≥350)” and the Emax is greater than 200%. Moreover, the EC50 under setting [1] was in the range of 1000 to 10000 nM. In addition, under setting [2], the EC50 is less than 1000 nM.
